# Experimental data from patent US20250281439A1, “USE OF L-ASPARTIC ACID BETA-HYDROXAMATE (L-ABH) IN PREPARATION OF DRUG FOR DIABETIC RETINOPATHY (DR) OR RETINOPATHY OF PREMATURITY (ROP)” (Wenzhou Medical University, priority 2024, published 2025).
# “Also recorded” adds a separate entry of the source.
# Key:
# db/db mice [1] = assay: Visual electrophysiological examination (dark and light adaptation) after 18 weeks of gavage; format: in vivo; details: gavage 20 mg/kg/day, 1 time per day, vs db/db+water
# Procedure: (§1) The 3-month-old db/db mice were randomly divided into two groups and subjected to intragastric gavage experiments: • group 1: gavage of water (denoted as db/db+water, 0.06 mL/10 g, 7 mice in total); • group 2: gavage of the L-ABH (denoted as db/db+L-ABH, 20 mg/kg/day, 10 mice in total).
# (§2) Each group was gavaged 1 time per day according to the dosage for 18 weeks.
# (§3) The 3-month-old wild-type mice were gavaged in the same manner as the group 1 (denoted as WT+water, 0.06 mL/10 g, 6 mice in total).
# (1) After the gavage, visual electrophysiological examinations were conducted on the mice in each group.
# In FIGS. 2A-2H, (dark adapted 0.01, dark adapted 3.0, dark adapted 10.0 and dark adapted 3.0 oscillatory potentials) show 4 tests under visual electrophysiological dark adaptation. […] In FIGS. 3A-3D, (light adapted 3.0, and light adapted 30 Hz flicker) show 2 tests after visual electrophysiological light adaptation.
# db/db mice [2] = assay: OCT experiment (circular and linear scan; RNFL and total retinal thickness); format: in vivo; details: gavage 20 mg/kg/day, 18 weeks, vs db/db+water
# Procedure: as §1, §2, §3
# (2) After the gavage, an OCT experiment was conducted.
# After the mice were anesthetized, tropicamide eye drops were used to dilate pupils, and after the mice entered deep anesthesia, ofloxacin was used to cover an ocular surface. The mice were placed on a mouse holder, their body position and the position knob were adjusted such that the lens was directly facing a center of mouse pupil. The position was fine-tuned from far to near such that an optic disc was located in a center of fundus image, and a focus was adjusted to make the image clear. A linear scan was conducted, where a linear scan position was moved to the vicinity of the optic disc, parameters and position were fine-tuned such that an OCT image passed through the optic disc and the optic disc was located in the middle, thus obtaining a cross-section of the retina from a temporal side to a nasal side. […]
# db/db mice [3] = assay: Retinal Brn3a immunofluorescence (RGC counting); format: in vivo; details: gavage 20 mg/kg/day, 18 weeks, vs db/db+water
# Procedure: as §1, §2, §3
# (3) After the gavage, retinal Brn3a immunofluorescence experiment was conducted.
# After the mice were euthanized, periocular tissue of the mice was cut open, their eyeball of the mice was cut out and placed in a 5 mL centrifuge tube containing 4% PFA to allow fixation for 24 h, and the retinas were separated and cut into 4 petal shapes. The retinas were washed with PBS, permeabilized for 45 min, and blocked for 2 h. After removing a blocking solution, a Brn3a antibody was diluted (1:100) with PBS buffer containing 1% BSA, incubated overnight at 4° C., and then washed with the PBS. […] LSM 880 confocal laser microscope was used to take a full retinal mosaic, and then fluorescent images of the inner, middle, and outer 3 areas were intercepted on the 4 petals of the retina, that is, 12 areas of one retina were intercepted to allow fluorescence counting statistics. […]
# db/db mice [4] = assay: Retinal digest preparation, PAS staining (endothelial cells, pericytes, acellular capillaries); format: in vivo; details: gavage 20 mg/kg/day, 18 weeks, vs db/db+water
# Procedure: as §1, §2, §3
# (4) After the gavage, the retinal digest preparation stretched preparation-PAS staining experiment was conducted.
# After the mice were euthanized, eyeballs of the mice were removed and fixated with 4% PFA for 48 h, the retinas of the mice were separated and rinsed in ddH2O on a shaker at room temperature overnight, a fixative was removed, and the retinas were cut in half. The retinas were placed in 3% trypsin (prepared in 0.2 M Tris buffer, pH=7.4) and digested at 37° C. for 1 h. […] The nuclei were washed with running water, dehydrated routinely, transparentized with xylene, sealed with neutral gum, and then 6 to 8 fields of view were randomly selected for counting and observation under a microscope, and the number of pericytes and endothelial cells was calculated.
# [5] = test system: neonatal mice, hypoxia-induced retinopathy model; assay: OIR experiment, hypoxia-induced retinopathy model (isolectin staining, area of retinal angiogenesis); format: in vivo; details: intraperitoneal 7 mg/kg/day, 1 time a day from day 12 after birth, 5 days, vs OIR+Saline
# Procedure: In this example, the effect of L-ABH was verified in a hypoxia-induced model. The hypoxia-induced retinopathy model could be used as a model of ROP and a late-stage model of DR. OIR experiment: neonatal mice on the 7th day after birth and mother mice were randomly divided into 3 groups. Two groups of the neonatal mice and the mother mice were placed in an OIR oxygen chamber. The neonatal mice in group 1 were intraperitoneally injected with L-ABH (7 mg/kg/day) 1 time a day from the 12th day after birth for 5 consecutive days, recorded as OIR+L-ABH (ip), with a total of 5 mice. While the neonatal mice in group 2 were intraperitoneally injected with an equal amount of saline every day from the 12th day, recorded as OIR+Saline, with a total of 5 mice. After 5 day of hyperoxia, hypoxia-induced models were established in the group 1 and the group 2. The mice in group 3 were fed normally and intraperitoneally injected with an equal volume of saline every day, recorded as WT, with a total of 5 mice. After 5 day of hyperoxia, the neonatal and the mother mice were taken out from the oxygen chamber. The neonatal and the mother mice in the 3 groups were raised normally for 5 days, then the neonatal mice were sacrificed, subjected to stretched preparation and stained with isolectin, and then analyzed for the area of retinal angiogenesis. […]
# [6] = Toxicity and tolerability of L-ABH on long-term oral administration; format: in vivo; details: no test described
# From the text: L-aspartic acid β-hydroxamate (L-ABH) is a reversible serine racemase (SR) inhibitor. […] However, there is no clear report on whether the L-ABH could be used for retinal neuroprotection as well as prevention and treatment of retinopathy.
# db/db mice [7] = details: previous studies, cited from earlier work
# [8] = oral 20 mg/kg/d for three months (patent ZL 202110755406.0); 20 mg/kg/day; cited from earlier work
smiles,measurement,setting,value
"N[C@@H](CC(=O)NO)C(=O)O [L-ABH, L-aspartic acid β-hydroxamate]","functions of bipolar cells and amacrine cells in the retina (a-, b-wave, oscillatory potential, N1-P1 amplitudes)",db/db mice [1],significantly improve the functions of bipolar cells and amacrine cells
same,"degeneration of nerve fiber layer and medial nasal retina (RNFL thickness, total retinal thickness by OCT)",db/db mice [2],protect the degeneration of a nerve fiber layer and a medial nasal retina
same,"RGCs (Brn3a fluorescence counting) in inner, middle and outer retina",db/db mice [3],significantly protect the RGCs in the middle and outer retina
same,"microvascular lesions (ratio of endothelial cells to pericytes, amount of acellular capillaries)",db/db mice [4],significantly reduce the microvascular lesions
same,"hypoxia-induced retinal angiogenesis (neovascular area, avascular area)",[5],significantly reduce the hypoxia-induced retinal angiogenesis
same,"nausea, vomiting, diarrhea, lactic acidosis",[6]; long-term use,"does not cause nausea, vomiting, diarrhea, or lactic acidosis"
same,irritating effect on gastrointestinal tract,[6],no irritating effect on gastrointestinal tract
same,random blood glucose,db/db mice [7]; animal model of type II diabetes,reduce random blood glucose
same,oral glucose tolerance test (OGTT),db/db mice [7],significantly improve oral glucose tolerance test (OGTT)
same,sensitivity of insulin tolerance test (ITT),db/db mice [7],increase sensitivity of insulin tolerance test (ITT)
same,hepatotoxicity and nephrotoxicity,[8],not hepatotoxic or nephrotoxic; also recorded: without hepatotoxicity and nephrotoxicity
